In article PMC2994747, “Molecular Characterization of c-Abl/c-Src Kinase Inhibitors Targeted against Murine Tumour Progenitor Cells that Express Stem Cell Markers” (PLoS ONE, 2010):

Experiments:
[1] = test system: A2C12; experiment: Western blot, semi-quantitative protein expression; format: cell-based, mouse
Procedure: (§1) For the Western Blot analysis, cells were rinsed and lysed as previously described. An amount of 25 µg protein was used for SDS-PAGE. Antibodies for c-Abl (sc-131), Actin (sc-1616), Cdc2-p34 (sc-8395), EPS15 (sc-1840), FAK (sc-558), c-Fos (sc-52), p38 (sc-7972), p53 (sc-6243) and STAT5 (sc-835x) were obtained from Santa Cruz (Santa Cruz Biotechnology, Heidelberg, Germany), while c-Src (2109) and phospho-Src Y416 (2101) were purchased from Cell Signaling (Cell Signaling Technology, Frankfurt a. M., Germany). The EGFR (06-847), phospho-EGFR Y992 (07-821) and phospho-EGFR Y1045 (04-284) stem from Upstate (Upstate, Schwalbach, Germany) and the hnRNP-K (A300-676A) from Bethyl Labs (Bethyl Laboratories, Montgomery, Texas, USA). Finally p73 (IMG-246) was supplied by Imgenex (Imgenex, Hamburg, Germany). Depending on the primary antibody the secondary antibodies were either horseradish peroxidase-conjugated anti-mouse (AP 160P), anti-rabbit (AP 132P) or anti-sheep (AP 147P) (Chemicon, Schwalbach, Germany).
(§2) Semi-quantitative analysis were carried out with Kodak 1D Image Analysis Software in reference to the vehicle treated control cells (see supplementary table S7).

[2] = test system: BetaD5; experiment: Western blot, semi-quantitative protein expression; format: cell-based, mouse
Procedure: as §1, §2

[3] = test system: CaCo2; experiment: Western blot, semi-quantitative protein expression; format: cell-based, human
Procedure: as §1, §2

[4] = test system: A549; experiment: Western blot, semi-quantitative protein expression; format: cell-based, human
Procedure: as §1, §2

[5] = test system: HepG2; experiment: Whole genome expression analysis (Affymetrix microarray); format: cell-based, human; settings: IC50 concentration, 96 h
Procedure: (§3) The cells were harvested and RNA was isolated using RNeasy Mini Kit (Qiagen, Hilden, Germany) according to the instructions of the manufacturer. The isolated RNA (250 ng) was processed further using standard protocols as described recently with the exception of the 3′ IVT Express Kit (Affymetrix, High Wycombe, UK) that was utilized according to instructions. Quality control of cRNA was done with the Agilent 2100 Bioanalyzer (Agilent Tech according to manufacturer's protocols. Following fragmentation, cRNA of each sample was hybridized to Affymetrix GeneChip® Mouse Genome 430 2.0 or Human Genome U133 Plus 2.0 and scanned with an Affymetrix 3000 7G scanner.
(§4) The resultant data was normalized by Probe Logarithmic Intensity Error Estimation (PLIER) algorithm. Statistical analysis was carried out with the ArrayTrack software (National Center for Toxicological Research/FDA, Jefferson, AR, USA) using SAM algorithm.

[6] = test system: CaCo2; experiment: as above; format: cell-based, human; settings: IC50 concentration, 96 h
Procedure: as §3, §4

[7] = test system: A549; experiment: as above; format: cell-based, human; settings: IC50 concentration, 96 h
Procedure: as §3, §4

[8] = test system: all tested cell lines; experiment: Caspase-Glo 3/7 activity assay, all tested cell lines; format: cell-based; settings: IC50 concentration, 24 h; vs vehicle
Procedure: According to instructions, Caspase-Glo® 3/7 assay (Promega GmbH, Mannheim, Germany) was used for monitoring caspase activity. Briefly, the same volume Caspase-Glo reagent as culture medium was added and incubated 1 h at room temperature. Luminescence was read with a Victor3 Wallac 1420 Multilabel counter (PerkinElmer, Rodgau, Germany). Background absorbance (medium only) was subtracted and the data given as percent of vehicle controls.

In the case of Clc1cccc(Nc2nc(SC3CCCC3)nc3c2cnn3CC(Cl)c2ccccc2)c1 (centres unmarked) [Si135], the Actin protein expression [1] is reported as 88, the “EGFR Y992-p protein expression” value [1] is reported as 79 and the “EGFR Y1045-p protein expression” value [1] is reported as 69. It also gave an EGFR protein expression [1] of 30, an EPS15 protein expression [1] of 83 and an FAK protein expression [1] of 71. The STAT5 protein expression [1] was 95, the c-Abl protein expression [1] was 64 and the c-Fos protein expression [1] was 52. The c-Src protein expression [1] was 95, the hnRNP-K protein expression [1] was 87 and the p38 protein expression [1] was 33. It also gave a p53 protein expression [1] of 58, a p73 protein expression [1] of 43 and an Actin protein expression [2] of 92. For the same compound, the “EGFR Y992-p protein expression” value [2] was 68, the “EGFR Y1045-p protein expression” value [2] was 148 and the EGFR protein expression [2] was 116. For the same compound, the EPS15 protein expression [2] was 759, the FAK protein expression [2] was 114 and the STAT5 protein expression [2] was 163. The c-Abl protein expression [2] was 101, the c-Fos protein expression [2] was 98 and the “c-Src Y416-p protein expression” value [2] was 20. The c-Src protein expression [2] was 135, the hnRNP-K protein expression [2] was 115 and the p38 protein expression [2] was 56. It also gave a p53 protein expression [2] of 119, an Actin protein expression [3] of 120 and a Cdc2-p34 protein expression [3] of 74. For the same compound, the “EGFR Y992-p protein expression” value [3] was 113, the “EGFR Y1045-p protein expression” value [3] was 104 and the EGFR protein expression [3] was 44. For the same compound, the EPS15 protein expression [3] was 79, the FAK protein expression [3] was 82 and the STAT5 protein expression [3] was 120. The c-Abl protein expression [3] was 155, the c-Fos protein expression [3] was 164 and the “c-Src Y416-p protein expression” value [3] was 129. For the same compound, the c-Src protein expression [3] was 125, the hnRNP-K protein expression [3] was 90 and the p38 protein expression [3] was 64. The p53 protein expression [3] was 69, the p73 protein expression [3] was 66 and the Actin protein expression [4] was 98. The Cdc2-p34 protein expression [4] was 82, the “EGFR Y992-p protein expression” value [4] was 128 and the “EGFR Y1045-p protein expression” value [4] was 23. It also gave an EGFR protein expression [4] of 45, an EPS15 protein expression [4] of 56 and an FAK protein expression [4] of 130. The STAT5 protein expression [4] was 80, the c-Abl protein expression [4] was 88 and the c-Fos protein expression [4] was 50. The “c-Src Y416-p protein expression” value [4] was 110, the c-Src protein expression [4] was 94 and the hnRNP-K protein expression [4] was 83. For the same compound, the p38 protein expression [4] was 62, the p53 protein expression [4] was 59 and the p73 protein expression [4] was 55. For the same compound, the “Significantly differentially regulated genes, downregulated (number)” value ([5]; SAM FDR<0.01, FC>2) was 0, the “Significantly differentially regulated genes, upregulated (number)” value ([5]; SAM FDR<0.01, FC>2) was 87 and the Dusp1 gene expression ([5]; vs control) was 1.56 log2 of fold change. The Hnrnpr gene expression ([5]; vs control) was 1.08 log2 of fold change, the Jun gene expression ([5]; vs control) was 1.34 log2 of fold change and the Pik3ca gene expression ([5]; vs control) was 2.01 log2 of fold change. The “Ptk2 (FAK) gene expression” value ([5]; vs control) was 1.20 log2 of fold change, the “Significantly differentially regulated genes, downregulated (number)” value ([6]; SAM FDR<0.01, FC>2) was 55 and the “Significantly differentially regulated genes, upregulated (number)” value ([6]; SAM FDR<0.01, FC>2) was 193. The Birc5 gene expression ([6]; vs control) was -4.36 log2 of fold change, the Cav1 gene expression ([6]; vs control) was 1.30 log2 of fold change and the Cdkn1a gene expression ([6]; vs control) was 1.00 log2 of fold change. For the same compound, the Ceacam1 gene expression ([6]; vs control) was 1.47 log2 of fold change, the Ceacam6 gene expression ([6]; vs control) was 1.25 log2 of fold change and the Cxcl2 gene expression ([6]; vs control) was 1.16 log2 of fold change. For the same compound, the Dusp1 gene expression ([6]; vs control) was 1.05 log2 of fold change, the Flnc gene expression ([6]; vs control) was 1.43 log2 of fold change and the Itga2 gene expression ([6]; vs control) was 1.02 log2 of fold change. The Jun gene expression ([6]; vs control) was 1.51 log2 of fold change, the Lamc2 gene expression ([6]; vs control) was 1.27 log2 of fold change and the Mtss1 gene expression ([6]; vs control) was -4.64 log2 of fold change. For the same compound, the Ptn gene expression ([6]; vs control) was -4.50 log2 of fold change, the Tgfb1i1 gene expression ([6]; vs control) was 1.67 log2 of fold change and the “Thbs (thrombospondin 1) gene expression” value ([6]; vs control) was -4.36 log2 of fold change. The Tnc gene expression ([6]; vs control) was -6.40 log2 of fold change, the Tuba1a gene expression ([6]; vs control) was 2.27 log2 of fold change and the “Significantly differentially regulated genes, downregulated (number)” value ([7]; SAM FDR<0.01, FC>2) was 17. For the same compound, the “Significantly differentially regulated genes, upregulated (number)” value ([7]; SAM FDR<0.01, FC>2) was 61, the Cdcp1 gene expression ([7]; vs control) was 1.23 log2 of fold change and the Ceacam6 gene expression ([7]; vs control) was 1.63 log2 of fold change. For the same compound, the Il8 gene expression ([7]; vs control) was 1.20 log2 of fold change, the Lamb3 gene expression ([7]; vs control) was 1.08 log2 of fold change and the Ptgs2 gene expression ([7]; vs control) was 1.05 log2 of fold change. For the same compound, the Vcan gene expression ([7]; vs control) was -4.42 log2 of fold change.

With CSc1nc(NCCc2ccc(Cl)cc2)c2cnn(CC(Cl)c3ccccc3)c2n1 (centres unmarked) [Si57] the Actin protein expression [1] was 97, the “EGFR Y992-p protein expression” value [1] was 117 and the “EGFR Y1045-p protein expression” value [1] was 29. It also gave an EGFR protein expression [1] of 66, an EPS15 protein expression [1] of 89 and an FAK protein expression [1] of 47. It also gave an STAT5 protein expression [1] of 104, a c-Abl protein expression [1] of 49 and a c-Fos protein expression [1] of 82. It also gave a c-Src protein expression [1] of 92, a hnRNP-K protein expression [1] of 104 and a p38 protein expression [1] of 59. For the same compound, the p53 protein expression [1] was 60, the p73 protein expression [1] was 40 and the Actin protein expression [2] was 98. For the same compound, the “EGFR Y992-p protein expression” value [2] was 116, the “EGFR Y1045-p protein expression” value [2] was 65 and the EGFR protein expression [2] was 61. It also gave an EPS15 protein expression [2] of 781, an FAK protein expression [2] of 98 and an STAT5 protein expression [2] of 192. The c-Abl protein expression [2] was 89, the c-Fos protein expression [2] was 58 and the “c-Src Y416-p protein expression” value [2] was 19. It also gave a c-Src protein expression [2] of 153, a hnRNP-K protein expression [2] of 126 and a p38 protein expression [2] of 76. The p53 protein expression [2] was 248, the “Change of caspase-3/7 activity in all cell lines” value [8] was “declined” and the Actin protein expression [3] was 131. For the same compound, the Cdc2-p34 protein expression [3] was 119, the “EGFR Y992-p protein expression” value [3] was 163 and the “EGFR Y1045-p protein expression” value [3] was 259. It also gave an EGFR protein expression [3] of 37, an EPS15 protein expression [3] of 122 and an FAK protein expression [3] of 111. The STAT5 protein expression [3] was 123, the c-Abl protein expression [3] was 217 and the c-Fos protein expression [3] was 129. For the same compound, the “c-Src Y416-p protein expression” value [3] was 155, the c-Src protein expression [3] was 106 and the hnRNP-K protein expression [3] was 98. The p38 protein expression [3] was 84, the p53 protein expression [3] was 70 and the p73 protein expression [3] was 78. For the same compound, the Actin protein expression [4] was 92, the Cdc2-p34 protein expression [4] was 55 and the “EGFR Y992-p protein expression” value [4] was 58. The “EGFR Y1045-p protein expression” value [4] was 6.66, the EGFR protein expression [4] was 9 and the EPS15 protein expression [4] was 70. For the same compound, the FAK protein expression [4] was 154, the STAT5 protein expression [4] was 34 and the c-Abl protein expression [4] was 43. For the same compound, the c-Fos protein expression [4] was 49, the “c-Src Y416-p protein expression” value [4] was 65 and the c-Src protein expression [4] was 100. It also gave a hnRNP-K protein expression [4] of 83, a p38 protein expression [4] of 27 and a p53 protein expression [4] of 33. For the same compound, the p73 protein expression [4] was 24.
